Literature values, collected in patent publication US7915306B2, “Macrocyclic compounds useful as pharmaceuticals” (Eisai Co., Ltd., priority 2002, dated 2011).
Where two headings read alike, the source gives them in different places.

Experiments:
[1] = mouse plasma
[2] = human plasma

biological stability (enone isomerization) [1]: susceptible to enone isomerization
inhibition of Map/Erk kinase (MEK) (Map/Erk kinase (MEK)): inhibit
biological stability (enone isomerization) [2]: susceptible to enone isomerization
SMILES: COc1cc(O)c2c(c1)/C=C/C[C@H](O)[C@H](O)C(=O)/C=C\C[C@H](C)OC2=O [F152]
